# Test results published in US20080287299A1, “Use of Imidazole and/or Triazole Derivatives for Combating Plant Pests; as Well as Method for Controlling Diseases/Insects/Mites/Nematodes and Weeds, Particularly Foliar and/or Soil Diseases” (priority 2005, published 2008).
# Legend:
# [1] = system: Phakopsora pachyrhizi; experiment: Greenhouse soybean rust test, plants at V6 stage, evaluated every 5 days; assay type: in vivo; conditions: for effective in controlling soybean rust: from 50 grams of active ingredient per hectare
# Text: Recent tests carried out in greenhouses the laboratory of FMC Quimica do Brasil Ltda. in Uberaba, MG, Brazil, show the highly fungicidal effect of said specific imidazole and/or triazole derivatives in combating diseases of plants, particularly against the attack by the fungus Phakopsora pachyrhizi on soybeans, as described hereinafter. […]
# Equipment: a manual sprayer commonly used in agriculture with 2-liter capacity.
# Dosages: 50 to 500 grams per hectare of the active compound Fluconazole per liter diluted in water.
# Evaluations of the Effectiveness of the Product: The evaluations were made every 5 days after application of the product, in a total of 4 evaluations. As an evaluation parameter one utilized the severity of the disease (percentage of foliar area attacked by rust) according to the diagrammatic scale of the EMBRAPA (FIG. 1). […]
# Dosages: 50 to 500 grams per hectare of the active compound Itraconazole per liter diluted in water.
# [2] = system: Phakopsora pachyrhizi; experiment: Field evaluation of fungicides for control of soybean asian rust, Rondonópolis, MT, Brazil; assay type: in vivo
# Experimental: Results of the 2nd step with defined crops (Evaluation of efficiency of fungicides for controlling soybean asian rust caused by Phakopsora pachyrhizi in the State of Mato Grosso, Brazil)
# Several fungicides were evaluated in the control of soybean asian rust (Table 1A). The experiment was effected in Rondonópolis, MT, Brazil, harvest 2005/06, in a commercial area with soybean cultivar. The experiment consisted of 13 treatments (Table 1A).
# The experimental outlining was random, in blocks, with 13 treatments and 4 repetitions. Each plot consisted of 6 lines of 6 m, spaced 0.45 m.
# The culture traits were suited to the good development of the soybean crop, uniformly applied in the whole experiment.
# The spraying was effected in stadiums R3 and R5.1, with coast CO2 sprayer provided with a JA-02-type beak, under a pressure of 0.31 MPa (45 psi), using 110 L of broth per ha. At the first application, the plants were presenting the beginning of rust symptoms at their foliar areas.
# The rust was evaluated by analysing the percentage of foliar area affected by the disease, according to Godoy et al., in the plants of the three central lines. Evaluationa related to soybean injury and severity were effected in 14 and 21 days after the first application (DDA), by means of visual observation of the leaves of the plot plants.
# [3] = Dose 1000 P.C. mL ha^−1, 14 days after the first application
# [4] = Dose 1000 P.C. mL ha^−1, 21 days after the first application
smiles,measurement,setting,value
"CC(=O)N1CCN(c2ccc(OC[C@H]3CO[C@](Cn4ccnc4)(c4ccc(Cl)cc4Cl)O3)cc2)CC1 (relative stereo) [Ketoconazole, cis-1-acetyl-4-(4-((2-(2,4-dichloro-phenyl)-2-(1H-imidazol-1-ylmethyl)-1,3-dioxolan-4-yl)methoxyl)phenyl)piperazine]",SEVERITY OF RUST (% IFA) 5 DAT,"[1]; 100 g ac/ha, soybeans",27 % IFA
same,SEVERITY OF RUST (% IFA) 10 DAT,"[1]; 100 g ac/ha, soybeans",20 % IFA
same,SEVERITY OF RUST (% IFA) 20 DAT,"[1]; 100 g ac/ha, soybeans",45 % IFA
same,SEVERITY OF RUST (% IFA) 5 DAT,"[1]; 200 g ac/ha, soybeans",10 % IFA
same,SEVERITY OF RUST (% IFA) 10 DAT,"[1]; 200 g ac/ha, soybeans",8 % IFA
same,SEVERITY OF RUST (% IFA) 20 DAT,"[1]; 200 g ac/ha, soybeans",18 % IFA
same,SEVERITY OF RUST (% IFA) 5 DAT,"[1]; 300 g ac/ha, soybeans",10 % IFA
same,SEVERITY OF RUST (% IFA) 10 DAT,"[1]; 300 g ac/ha, soybeans",6 % IFA
same,SEVERITY OF RUST (% IFA) 20 DAT,"[1]; 300 g ac/ha, soybeans",16 % IFA
same,SEVERITY OF RUST (% IFA) 5 DAT,"[1]; 400 g ac/ha, soybeans",11 % IFA
same,SEVERITY OF RUST (% IFA) 10 DAT,"[1]; 400 g ac/ha, soybeans",7 % IFA
same,SEVERITY OF RUST (% IFA) 20 DAT,"[1]; 400 g ac/ha, soybeans",15 % IFA
same,SEVERITY OF RUST (% IFA) 5 DAT,"[1]; 500 g ac/ha, soybeans",8 % IFA
same,SEVERITY OF RUST (% IFA) 10 DAT,"[1]; 500 g ac/ha, soybeans",4 % IFA
same,SEVERITY OF RUST (% IFA) 20 DAT,"[1]; 500 g ac/ha, soybeans",11 % IFA
same,effectiveness for controlling soybean rust,[1]; from the dose of 200 grams of active ingredients per hectare,imparts effectiveness for controlling soybean rust
same,Severity - affected foliar area (%) 14 DAA,[2]; [3],2.0%
same,Severity - affected foliar area (%) 21 DAA,[2]; [4],7.0%
"OC(Cn1cncn1)(Cn1cncn1)c1ccc(F)cc1F [Fluconazole, alpha-(2,4-difluorophenyl)-alpha-(1H-1,2,4-trizole-1-ylmethyl)-1H-1,2,4-trizole-1-ethanol]",SEVERITY OF RUST (% IFA) 5 DAT,"[1]; Table 2: 50 g ac/ha, soybean",5 % IFA
same,SEVERITY OF RUST (% IFA) 10 DAT,"[1]; Table 2: 50 g ac/ha, soybean",10 % IFA
same,SEVERITY OF RUST (% IFA) 15 DAT,"[1]; Table 2: 50 g ac/ha, soybean",12 % IFA
same,SEVERITY OF RUST (% IFA) 20 DAT,"[1]; Table 2: 50 g ac/ha, soybean",12 % IFA
same,SEVERITY OF RUST (% IFA) 5 DAT,"[1]; Table 2: 100 g ac/ha, soybean",5 % IFA
same,SEVERITY OF RUST (% IFA) 10 DAT,"[1]; Table 2: 100 g ac/ha, soybean",7 % IFA
same,SEVERITY OF RUST (% IFA) 15 DAT,"[1]; Table 2: 100 g ac/ha, soybean",10 % IFA
same,SEVERITY OF RUST (% IFA) 20 DAT,"[1]; Table 2: 100 g ac/ha, soybean",11 % IFA
same,SEVERITY OF RUST (% IFA) 5 DAT,"[1]; Table 2: 150 g ac/ha, soybean",4 % IFA
same,SEVERITY OF RUST (% IFA) 10 DAT,"[1]; Table 2: 150 g ac/ha, soybean",6 % IFA
same,SEVERITY OF RUST (% IFA) 15 DAT,"[1]; Table 2: 150 g ac/ha, soybean",9 % IFA
same,SEVERITY OF RUST (% IFA) 20 DAT,"[1]; Table 2: 150 g ac/ha, soybean",10 % IFA
same,SEVERITY OF RUST (% IFA) 5 DAT,"[1]; Table 2: 250 g ac/ha, soybean",3 % IFA
same,SEVERITY OF RUST (% IFA) 10 DAT,"[1]; Table 2: 250 g ac/ha, soybean",7 % IFA
same,SEVERITY OF RUST (% IFA) 15 DAT,"[1]; Table 2: 250 g ac/ha, soybean",11 % IFA
same,SEVERITY OF RUST (% IFA) 20 DAT,"[1]; Table 2: 250 g ac/ha, soybean",10 % IFA
same,SEVERITY OF RUST (% IFA) 5 DAT,"[1]; Table 2: 500 g ac/ha, soybean",0 % IFA
same,SEVERITY OF RUST (% IFA) 10 DAT,"[1]; Table 2: 500 g ac/ha, soybean",0 % IFA
same,SEVERITY OF RUST (% IFA) 15 DAT,"[1]; Table 2: 500 g ac/ha, soybean",2 % IFA
same,SEVERITY OF RUST (% IFA) 20 DAT,"[1]; Table 2: 500 g ac/ha, soybean",4 % IFA
same,effective in controlling soybean rust,[1],effective in controlling soybean rust
same,Severity - affected foliar area (%) 14 DAA,"[2]; Dose 500 P.C. mL ha^−1, 14 days after the first application",0.6%
same,Severity - affected foliar area (%) 21 DAA,"[2]; Dose 500 P.C. mL ha^−1, 21 days after the first application",4.0%
same,Severity - affected foliar area (%) 14 DAA,"[2]; Dose 750 P.C. mL ha^−1, 14 days after the first application",0.5%
same,Severity - affected foliar area (%) 21 DAA,"[2]; Dose 750 P.C. mL ha^−1, 21 days after the first application",2.0%
same,Severity - affected foliar area (%) 14 DAA,[2]; [3],0.4%
same,Severity - affected foliar area (%) 21 DAA,[2]; [4],1.5%
"CCC(C)n1ncn(-c2ccc(N3CCN(c4ccc(OC[C@H]5CO[C@](Cn6cncn6)(c6ccc(Cl)cc6Cl)O5)cc4)CC3)cc2)c1=O (mixture of isomers) [Itraconazole, 4-[4-[4-[4-[[2-(2,4-dichlorophenyl)-2-(1H-1,2,4-triazol-1-ylmethyl)-1,3-dioxolan-4-yl]methoxy]phenyl]-1-pipera-zinyl]phenyl]-2,4-dihydro-2-(1-methylpropyl) 3H-1,2,4-triazol-3-one]",SEVERITY OF RUST (% IFA) 5 DAT,"[1]; Table 3: 50 g ac/ha, soybean",6 % IFA
same,SEVERITY OF RUST (% IFA) 10 DAT,"[1]; Table 3: 50 g ac/ha, soybean",12 % IFA
same,SEVERITY OF RUST (% IFA) 15 DAT,"[1]; Table 3: 50 g ac/ha, soybean",11 % IFA
same,SEVERITY OF RUST (% IFA) 5 DAT,"[1]; Table 3: 100 g ac/ha, soybean",5 % IFA
same,SEVERITY OF RUST (% IFA) 10 DAT,"[1]; Table 3: 100 g ac/ha, soybean",13 % IFA
same,SEVERITY OF RUST (% IFA) 15 DAT,"[1]; Table 3: 100 g ac/ha, soybean",10 % IFA
same,SEVERITY OF RUST (% IFA) 5 DAT,"[1]; Table 3: 150 g ac/ha, soybean",5 % IFA
same,SEVERITY OF RUST (% IFA) 10 DAT,"[1]; Table 3: 150 g ac/ha, soybean",13 % IFA
same,SEVERITY OF RUST (% IFA) 15 DAT,"[1]; Table 3: 150 g ac/ha, soybean",10 % IFA
same,SEVERITY OF RUST (% IFA) 5 DAT,"[1]; Table 3: 250 g ac/ha, soybean",3 % IFA
same,SEVERITY OF RUST (% IFA) 10 DAT,"[1]; Table 3: 250 g ac/ha, soybean",14 % IFA
same,SEVERITY OF RUST (% IFA) 15 DAT,"[1]; Table 3: 250 g ac/ha, soybean",10 % IFA
same,SEVERITY OF RUST (% IFA) 5 DAT,"[1]; Table 3: 500 g ac/ha, soybean",0 % IFA
same,SEVERITY OF RUST (% IFA) 10 DAT,"[1]; Table 3: 500 g ac/ha, soybean",10 % IFA
same,SEVERITY OF RUST (% IFA) 15 DAT,"[1]; Table 3: 500 g ac/ha, soybean",0 % IFA
same,effective in controlling soybean rust,[1],effective in controlling soybean rust
